Results from article PMC10066226, “An ultra-high-throughput screen for the evaluation of peptide HLA-Binder interactions” (Scientific Reports, 2023).

What follows are sequences tested against model TCER IMAHiAff#1 (assay: BLI measurements (Octet RED384) of peptide-loaded disulfide-stabilized pHLA). Conditions: not given.
Type: binding
Source text: In order to confirm our results obtained from the ultra high throughput highSCORE measurements, we compared the KD values with the corresponding ones from BLI measurements (Fig. 4). The direct correlation between the two methods can be described as a hockey stick. Many peptides with single amino acid mutations show similar KD values as the WT peptide. This is especially the case for KD values obtained from the highSCORE measurements. Within the BLI data set, most of the library peptides show a higher KD value compared to the corresponding WT peptide (Fig. 4a). This relation results in a flat region within the correlation plot. All other peptide, with the exception of the ones highlighted with an arrow, show a good linear correlation between both data sets. It is important to note that while the spectroscopic principle behind BLI and highSCORE is similar, the experimental procedure is different. Using BLI, the pHLA complexes are bound to a sensor tip, which is dipped into a microtiter plate well containing the analyte. Thereafter, the sensor tip is wiggled within the well to ensure that the analyte is not depleted on the surface. In contrast, during a highSCORE measurement, the analyte is flushed over the microarray using a thin flow chamber. This makes the experimental procedure of a highSCORE measurement more similar to that of an SPR device. Consequently, differences in the KD values between BLI and highSCORE measurements are to be expected and might explain the shift in the overall distribution of the KD values (Fig. 4b). […] Since both measurement methods have their own advantages and disadvantages, it is difficult to tell which of the two methods provides the values that are closest to reality.
BLI measurements were performed on an Octet RED384 system using anti-Penta-His biosensors. In short, disulfide-stabilized molecules were refolded and peptide-loaded as previously described. All analytes or ligands were diluted to their final concentration in kinetics buffer (PBS, 0.1% BSA, 0.05% Tween-20) if not specified otherwise. All biosensors were hydrated for at least 10 minutes in kinetics buffer before use. Loadings and measurements were performed in 384 tilted well plates (Pall Fortébio) with at least 40 μ l at a 3 mm sensor offset. Plate temperature was set at 30 ^∘ C and shaker speed at 1000 rpm. To generate a baseline, sensors were dipped in kinetics buffer for 60 s before being loaded with 10 ug/ml of peptide loaded disulfide-stabilized pHLA for 120 s. Afterwards, a second 120 s baseline was recorded before a 60 s association and a 240 s dissociation phase. After individual measurements, sensors were regenerated using 10 mM Glycine pH 1.5 4 times for 5s each before another cycle was performed. 4 TCER concentrations (500nM, 158.1nM, 50nM and 15.8nM) were measured for each pHLA complex. A sensor loaded with an irrelevant pHLA was measured in line for reference sensor subtraction. All sensorgrams were analyzed using the OctetRED software “Data Analysis HT” version 11.0.0.50 (Pall Fortébio). Raw sensor data was aligned at the Y axis by aligning the data to the end of the baseline step, and inter-step correction was used to align the start of the dissociation to the end of the association phase. Savitzky-Golay filtering was applied. Resulting sensorgrams were then fitted using a 1:1 Langmuir kinetics binding model. In case of lower affinity binding events, the lower two concentrations were excluded from the fitting.

**Q.** For SLLQHLDGL [D7], which BLI_KD is on record?
**A.** The BLI_KD was “no fit”.

**Q.** SLLQHLEGL [E7] was tested. Which BLI_KD did it give?
**A.** The BLI_KD was “no fit”.

**Q.** How did the BLI_KD turn out when SLLQHLIFL [F8] was run?
**A.** Its BLI_KD is “no fit”.

**Q.** With SLLQHLIWL [W8] as the sequence, how does the BLI_KD read?
**A.** Its BLI_KD is “no fit”.

Same assay, conditions: std in a column of its own

**Q.** Which BLI_KD does the source give for SLLQHLWGL [W7] here?
**A.** The BLI_KD was “no fit”.

**Q.** Which BLI_KD does the source give for SLLQHPIGL [P6] here?
**A.** The BLI_KD was “no fit”.
